According to patent US20040266811A1, “Methods for inducing regeneration, remyelination, and hypermyelination of nervous tissue” (priority 2002, published 2004):
“Also recorded” adds a separate entry of the source.

Experiments:
[1] = tested on: DRG explants; assay: DRG explant neurite outgrowth with anti-NGF neutralizing antibodies or MEK1 inhibitor; type: cell-based, C57B1/6 mice
Experimental: (A) DRGs were prepared and cultured as above, except that either the MEK1 inhibitor, PD 098059, or NGF-neutralizing antibodies were included in cultures treated with either NGF or GM-284. Maximal response was determined to be the extent of neurite outgrowth when DRGs were cultured in NGF alone (spotted bars) or in 1 μM GM-284 (striped bars). As indicated, DRGs were treated with either NGF or GM-284, in the presence of either 0.25 mg/ml anti-NGF neutralizing antibodies or PD 098059. […] DRGs were treated with 100 ng/ml NGF or 1 μM GM-284, for 30 min or 4 h, as indicated, and the detergent lysates were prepared and immunoblotted with anti-phospho-Erk monoclonal antibody. The p42 and p44 bands are indicated by arrowheads.
Explanted DRG ganglia were dissected from P1 to P3 C57B1/6 mice, as previously described (Weinstein et al., Targeted expression of an oncogenic adaptor protein v-Crk potentiates axonal growth in dorsal root ganglia and motor neurons in vivo. Brain Res. Dev. Brain Res., 116:29-39, 1999). Briefly, DRGs were dissected and placed in ice-cold PBS containing 2% glucose, then transferred onto polyornithine/laminin-coated tissue culture plates (Biocoat, Becton Dickinson Laboratories) in DMEM-plating medium overnight. The plating medium consisted of Dulbecco's minimal essential plating medium (DMEM) supplemented with 10% fetal calf serum (FCS; Hyclone), 0.6% glucose, 2 mM glutamine, 100 U/ml penicillin, 100 μg/ml streptomycin, and 20 mM HEPES. […] For experiments employing anti-NGF neutralizing antibodies, cultures were incubated with […] anti-NGF antiserum, and replaced every two days. Cultures were kept at 37° C., in 5% CO2, for up to 1 week, at which time the extent of well-defined neurite outgrowth was assessed.
Signaling by the neurotrophins, while mediated by different cell-surface receptors, converges on the extensively studied and well-characterized MAP kinase pathway. […] Therefore, the inventors explored the possibility that GM-284 might signal through NGF directly, or through the MAP kinase cascade. […]

[2] = tested on: calcineurin; conditions: cited from earlier work
[3] = tested on: purified chick sensory neurons (PC12 or SH-SY5Y cells); conditions: literature; cited from earlier work

Q: Which “effect of anti-NGF / MEK1 inhibition on GM-284-mediated neurite outgrowth” value ([1]; DRGs cultured in 1 μM GM-284 plus inhibitor) does the source give for `COc1cccc(-c2cc(=O)c3ccccc3o2)c1N` [PD 098059] here?
A: no effect

Q: What about the “decrease of NGF-dependent neurite outgrowth” value ([1]; DRGs cultured in NGF plus inhibitor) of the same molecule?
A: ~40%

Q: Which “binding to / inhibition of calcineurin” value [2] does the source give for `CCC(C)(C)C(=O)C(=O)N1CCC[C@H]1C(=O)OCCCc1cccnc1` [GPI-1046] here?
A: neither bind to, nor inhibit, calcineurin

Q: And the “neurite outgrowth without other signaling molecules / with sub-threshold NGF” value [3]?
A: potentiate neurite outgrowth only when co-administered with sub-threshold concentrations of NGF; also recorded: unable to mediate neurite outgrowth in the absence of other signaling molecules
